Results reported in patent US20260285849A1, “METHYLOPHIOPOGONONE A DERIVATIVE, AND PREPARATION AND USE THEREOF” (INSTITUTE OF MATERIA MEDICA, CHINESE ACADEMY OF MEDICAL …, priority 2022, published 2026).
Read-outs that look alike come from different tables or passages of the source. Marks after values point to notes of the source that are not given here.

Tests used:
[1] = tested on: Rat H9C2 cardiomyocytes; details: for OD: 800 μM ISO 24 h, MTT 570 nm; for Cell survival rate: rat, h9c2 cells, 24 h
Method: (§3) Rat H9C2 cardiomyocytes in the logarithmic growth phase were seeded into 96-well plates at a density of 7×10^4 cells/mL, with 100 μL per well. […] After 24 hours of culture, the drug groups were treated with 800 μM ISO and the corresponding concentrations of drugs. The ISO model group received 800 μM ISO and an equal volume of DMSO, and the blank control group received an equal volume of DMSO. The cells were then cultured for another 24 hours. After removing the supernatant, 100 μL MTT solution (0.5 mg/mL) was added to each well and incubated in the cell culture incubator for 4 hours. After removing the supernatant, 150 μL DMSO was added to each well, mixed by shaking for 10 minutes, and the absorbance was measured at 570 nm using a microplate reader to calculate cell viability. Cell viability (%)=[(As−Ab)/(Ac−Ab)]×100%. As: Experimental well (medium with cells, MTT, ISO); Ac: Control well (medium with cells, MTT, without ISO); Ab: Blank well (medium without cells, MTT, without ISO).

[2] = tested on: mice with isoproterenol (ISO)-induced ischemic heart disease; assay: ISO-induced ischemic heart disease mouse model: serum ANP and NT-proBNP (ELISA); assay type: in vivo; details: 20 mg/kg intragastric once a day 11 days, ISO 40 mg/kg s.c. 7 times
Method: (§1) Male C57BL/6 mice were allowed to acclimate to the environment and then randomly divided into 9 groups, namely the blank control group, the ISO model group, the ISO+diltiazem 20 mg/kg positive control drug group, the ISO+Formula I (0.1, 0.5, 2 mg/kg) groups, and the ISO+Formula II (0.1, 0.5, 2 mg/kg) groups. Mice in the drug administration groups were intragastrically administered the corresponding doses of Formula I and Formula II compounds once a day at the same time. Mice in the positive drug diltiazem group were intragastrically administered the corresponding dose of diltiazem once a day. Mice in the blank control group and the model group were given the same amount of solvent (0.5% CMC-Na). The administration volume was 10 mL/kg, and the administration was continuous for 11 days.
(§2) From the 4th to the 10th day of drug administration, ISO modeling was carried out. The blank control group was subcutaneously injected with normal saline, and mice in the other groups were subcutaneously injected with ISO at a dose of 40 mg/kg (modeling was performed 2 hours after drug administration), for a total of 7 times.
Detection of Myocardial Hypertrophy/Heart Failure Biomarkers: After the drug administration ended, the animals' eyes were enucleated to collect blood. The blood was left to stand at room temperature for 2 hours, and then centrifuged at 3500 rpm for 20 minutes to separate the serum. The contents of serum ANP and NT-proBNP were determined according to the instructions of the ELISA kit.

[3] = tested on: Rat H9C2 cardiomyocytes; details: for OD: 10 μM, 50 μM Ang II 24 h, MTT 570 nm
[4] = tested on: Rat H9C2 cardiomyocytes; assay: cells; details: H9c2, 24 h, read-out: Cell survival rate
Method: as §3

[5] = tested on: mice with isoproterenol (ISO)-induced ischemic heart disease; assay: ISO-induced ischemic heart disease mouse model: serum CK-MB (ELISA); assay type: in vivo; details: 20 mg/kg intragastric once a day 11 days
Method: as §1, §2
Myocardial enzyme CK-MB detection: After the administration ended, blood was collected from the animals by enucleation. The blood was left to stand at room temperature for 2 hours, and then centrifuged at 3500 rpm for 20 minutes to separate the serum. The content of CK-MB in the serum was determined according to the instructions of the ELISA kit.

[6] = tested on: H9C2 cardiomyocytes; assay: cells; details: Rattus norvegicus, H9c2, read-out: Cell viability
Method: (§4) H9C2 cardiomyocytes in the logarithmic growth phase were seeded into 96-well plates at a density of 7×10^4 cells/mL, with 100 μL per well.
(§5) After 24 hours of culture, the culture medium of the H/R and drug-treated groups was replaced with serum-free glucose-free DMEM medium (100 μL per well). The cells were then placed in an anaerobic incubator and cultured under hypoxic conditions in a 37° C. cell culture incubator. After 6 hours, the supernatant of the H/R and drug-treated groups was removed and replaced with high-glucose medium containing 10% fetal bovine serum (100 μL per well). Each drug-treated group received the corresponding concentration of the drug, while the H/R model group and the blank control group received an equal volume of DMSO.
(§6) After removing the supernatant, 100 μL of CCK solution (the volume of CCK accounted for 10% of the DMEM culture medium volume) was added to each well. The cells were cultured in the cell culture incubator for 1 hour, and the absorbance was measured at 450 nm using a microplate reader to calculate the cell viability. Cell viability was calculated as follows: Cell viability (%)=(Experimental well-Blank well)/(Control well-Blank well)×100%.

[7] = tested on: mice with isoproterenol (ISO)-induced ischemic heart disease; assay: ISO-induced ischemic heart disease mouse model: Ca2+ in myocardial tissue; assay type: in vivo; details: 20 mg/kg intragastric once a day 11 days
Method: as §1, §2
Calcium ion detection in myocardial tissue: After the experiment ended, some myocardial tissue was taken to prepare a 10% myocardial tissue homogenate with ultrapure water. The homogenate was centrifuged at 1200 rpm for 20 minutes at 4° C. to separate the supernatant of the myocardial tissue homogenate. The calcium ion content was determined according to the kit instructions; protein quantification was performed using the BCA protein assay method.

[8] = tested on: H9C2 cardiomyocytes; details: for OD: 6 h hypoxia, 12 h reoxygenation, CCK 450 nm; for Cell viability: rat, h9c2 cells
Method: as §4, §5, §6

[9] = tested on: mice with isoproterenol (ISO)-induced ischemic heart disease; assay: ISO-induced ischemic heart disease mouse model: myocardial tissue pathology (H&E); assay type: in vivo; details: 20 mg/kg, H&E
Method: as §1, §2
Pathological detection of myocardial tissue: After the experiment ended, the heart was washed with ice-cold physiological saline and dried with absorbent paper. It was then cut transversely into two halves. One-third of the part closer to the apex of the heart was fixed in a 4% paraformaldehyde solution. After dehydration with gradient ethanol and clearing with xylene, it was immersed in melted paraffin three times for embedding, 30 minutes each time. After embedding, continuous sections (about 4 μm thick) were made. Routine hematoxylin and eosin (H.E.) staining was performed. The pathological state of the myocardial tissue was observed under an optical microscope, photographed, and analyzed.
• −: No abnormalities were observed. • +: No myocardial tissue damage was seen. There was local hypertrophy of cardiomyocytes in the interventricular septum and papillary muscles, local edema and degeneration of cardiomyocytes, widening of the local muscle space in the lesion area, and mild non-specific inflammation in the interstitium. • ++: No obvious myocardial tissue damage (cardiomyocyte necrosis) was observed. There was local hypertrophy of cardiomyocytes in the interventricular septum and papillary muscles, local edema and degeneration of cardiomyocytes. Myofibril dissolution (disappearance of cross-striations) could be seen in local areas. The lesions were relatively limited and distributed in small foci. Non-specific inflammation was visible in the interstitium, and local fibrous tissue hyperplasia in the interstitium was noted. • +++: There was obvious hypertrophy of cardiomyocytes in the interventricular septum and papillary muscles, local edema and degeneration of cardiomyocytes. […] The lesion was limited to the subendocardium of the local interventricular septum (or papillary muscle), with a limited and small affected area. Non-specific inflammation was visible in the interstitium of the lesion area, and local fibrous tissue hyperplasia in the interstitium was noted. • ++++: The hypertrophy of cardiomyocytes in the interventricular septum and papillary muscles is remarkable. Locally, there is edema and degeneration of cardiomyocytes; there is obvious damage (necrosis of cardiomyocytes) in the myocardial tissue of the local interventricular septum and papillary muscles. The lesions are distributed in foci (or small patches), and the affected area is relatively large. […] Locally, there is edema and degeneration of cardiomyocytes; the damage (necrosis of cardiomyocytes) of the myocardial tissue of the local interventricular septum and papillary muscles is severe. The damage (necrosis) lesions are distributed in patches and are connected to each other. Transmural myocardial tissue damage of the interventricular septum and papillary muscles can be seen locally.

[10] = tested on: Rat H9C2 cardiomyocytes; assay: cells; details: H9c2, 24 h, read-out: Cell viability
[11] = tested on: H9C2 cardiomyocytes; assay: Angiotensin II (Ang II)-induced cardiomyocyte hypertrophy model, crystal violet, cell surface area; assay type: cell-based, rat; details: 10 μM; 40 μM Ang II 24 h; mean of 5 views
Method: Adjust the H9C2 cardiomyocytes in the logarithmic growth phase to a density of 1.2×10^5 cells/well and inoculate them into six-well plates. […] After culturing for 24 hours, the drug administration groups are added with 40 μM Ang II and the corresponding concentrations of drugs. The Ang II+diltiazem 10 μM group is added with 40 μM Ang II and 10 μM diltiazem. The Ang II model group is added with 40 μM Ang II and an equal volume of DMSO. The blank control group is added with an equal volume of DMSO. Then, continue culturing for 24 hours. Discard the culture medium, wash the cells 3 times with PBS. Add 1 mL of methanol to each well and fix the cells at −20° C. for 20 minutes, and then let them return to room temperature. After discarding the methanol, add 1 mL of 0.5% crystal violet staining solution to each well and stain for 10 minutes. Wash the cells with clean water and take pictures under an inverted microscope. Randomly select fields of view for photographing. Use Image J software to measure the sum of the surface areas of all cardiomyocytes in the field of view and count the number of cells in the field of view at the same time to obtain the surface area of each cardiomyocyte. The surface area of a single cardiomyocyte=the sum of the surface areas of all cardiomyocytes in the field of view/the number of cardiomyocytes in the field of view.

## COc1ccc([C@@H]2Sc3ccccc3N(CCN(C)C)C(=O)[C@@H]2OC(C)=O)cc1 [Diltiazem, reference compound]
[1]; 10 μM
  OD: 0.773 ± 0.029
[2]
  ANP: 361.59 ± 46.95^ pg/mL
  NT-proBNP: 43.12 ± 2.93 pg/mL
[3]
  OD: 0.857 ± 0.042
[4]
  viability at 10 µM: 63.9%
[5]
  CK-MB: 17.98 ± 2.88 ng/mL
[6]
  viability at 10 µM: 50.2%
[7]
  Ca^2+: 0.057 ± 0.011 mmol/gprot
[8]; 10 μM
  OD: 0.522 ± 0.061
[9]
  The number of animals with lesion degree +: 3
  The number of animals with lesion degree ++: 1
  The number of animals with lesion degree +++: 4
  The number of animals with lesion degree ++++: 0
  The number of animals with lesion degree +++++: 0
  The number of animals with lesion degree −: 2
  average score of myocardial tissue lesion degree: 1.70 ± 1.25
[10]
  viability at 10 µM: 79.7%
[11]
  Myocardial surface area: 392.02 ± 19.37^### μm^2

## Cc1c(O)cc2occ(Cc3ccc4c(c3)OCO4)c(=O)c2c1O [Formula III]
[1]; 1 μM
  OD: 0.815 ± 0.041
[1]; 5 μM
  OD: 0.792 ± 0.061
[1]; 10 μM
  OD: 0.750 ± 0.065
[4]
  viability at 1 µM: 67.4%
  viability at 5 µM: 65.5%
  viability at 10 µM: 62.1%
[6]
  viability at 0.1 µM: 53.1%
  viability at 0.3 µM: 48.1%
  viability at 1 µM: 53.4%
  viability at 3 µM: 55.8%
  viability at 5 µM: 52.2%
  viability at 10 µM: 50.6%
[8]; 0.1 μM
  OD: 0.552 ± 0.067
[8]; 0.3 μM
  OD: 0.500 ± 0.062
[8]; 1 μM
  OD: 0.555 ± 0.053
[8]; 3 μM
  OD: 0.580 ± 0.069
[8]; 5 μM
  OD: 0.543 ± 0.037
[8]; 10 μM
  OD: 0.527 ± 0.047

## Cc1c(O)c(C)c2occ(Cc3ccc4c(c3)OCO4)c(=O)c2c1O [methyl ophiopogonone A, reference compound]
[1]; 1 μM
  OD: 0.781 ± 0.029
[1]; 5 μM
  OD: 0.801 ± 0.045
[1]; 10 μM
  OD: 0.724 ± 0.024^(p = 0.09)
[1]; 1 µM
  Cell survival rate: 64.63%
[1]; 5 µM
  Cell survival rate: 66.28%
[1]; 10 µM
  Cell survival rate: 59.89%
[3]
  OD: 0.833 ± 0.041
[3]; rat, h9c2 cells, 24 h, 10 µM
  Cell viability: 77.40%
[8]; 1 μM
  OD: 0.540 ± 0.034
[8]; 5 μM
  OD: 0.501 ± 0.042
[8]; 10 μM
  OD: 0.581 ± 0.054
[8]; 1 µM
  Cell viability: 51.93%
[8]; 5 µM
  Cell viability: 48.17%
[8]; 10 µM
  Cell viability: 55.82%
